{"source": "patent US20210315474A1", "about": "“DECOUPLED COIL ASSEMBLIES, MAGNETIC RESONANCE SYSTEMS AND METHODS OF USE” (FluoID Inc, priority 2018, published 2021)", "experiment": "19F magnetic resonance imaging in vivo: tracking isoflurane in rat brain", "details": "live Sprague-Dawley rat", "text": "A MR system is utilized for this representative imaging experiment.\nHere, indirect inverse irradiation focused on 19F is utilized to provide rapid and specific identification of the target molecule of interest while observing 1H, while circulating in a subject organism.\nA live Sprague-Dawley rat was secured in the bed of the representative holding assembly of Example 1B. The RF coil elements were situated such that the area around its head was encircled to provide complete coverage for the brain of the animal, then the assembly placed in the MRI system of Example 1C. Localization of the spin species of interest, 19F, was accomplished with a spin-echo (or, alternatively, gradient-echo) sequence preceded with a magnetization transfer (MT) pulse allowing magnetization from 19F to 1H. The rat was subjected to increasing stepwise amounts of isoflurane, an inhaled general anesthetic with chemical structure CF3-CHCl—O—CHF2, over 30 minutes (see Table 2), then the flow was halted.\nAnatomical MR images were obtained also using a standard spin-echo (or alternatively, gradient-echo) sequence. The MT pulse duration and strength were maintained constant prior to the signal acquisition by the surface coil.", "data": [{"smiles": "FC(F)OC(Cl)C(F)(F)F", "note": "(centres unmarked) [isoflurane]", "values": [{"measurement": "19F signal seen in the brain (level of the drug reaching the CNS in real time)", "setting": "inhaled isoflurane increased stepwise 1%-3% over 30 minutes, MT pulse 19F to 1H, FIG. 17", "result": "increasing amount of 19F signal seen in the brain"}, {"measurement": "concentration of isoflurane in the brain after cessation of anesthetic delivery", "setting": "over the 30 minutes following cessation of anesthetic delivery (not shown)", "result": "disappearance of the concentration of isoflurane in the brain could be observed"}]}]}
